This is an account of results in ChEMBL document CHEMBL1201862, “PubChem BioAssay data set” (2004).

Assay type in all cases: functional
For test [1], the target named is T1, Short transient receptor potential channel 4 (Mus musculus, UniProt Q9QUQ5).
T1 sequence (Q9QUQ5 whole entry): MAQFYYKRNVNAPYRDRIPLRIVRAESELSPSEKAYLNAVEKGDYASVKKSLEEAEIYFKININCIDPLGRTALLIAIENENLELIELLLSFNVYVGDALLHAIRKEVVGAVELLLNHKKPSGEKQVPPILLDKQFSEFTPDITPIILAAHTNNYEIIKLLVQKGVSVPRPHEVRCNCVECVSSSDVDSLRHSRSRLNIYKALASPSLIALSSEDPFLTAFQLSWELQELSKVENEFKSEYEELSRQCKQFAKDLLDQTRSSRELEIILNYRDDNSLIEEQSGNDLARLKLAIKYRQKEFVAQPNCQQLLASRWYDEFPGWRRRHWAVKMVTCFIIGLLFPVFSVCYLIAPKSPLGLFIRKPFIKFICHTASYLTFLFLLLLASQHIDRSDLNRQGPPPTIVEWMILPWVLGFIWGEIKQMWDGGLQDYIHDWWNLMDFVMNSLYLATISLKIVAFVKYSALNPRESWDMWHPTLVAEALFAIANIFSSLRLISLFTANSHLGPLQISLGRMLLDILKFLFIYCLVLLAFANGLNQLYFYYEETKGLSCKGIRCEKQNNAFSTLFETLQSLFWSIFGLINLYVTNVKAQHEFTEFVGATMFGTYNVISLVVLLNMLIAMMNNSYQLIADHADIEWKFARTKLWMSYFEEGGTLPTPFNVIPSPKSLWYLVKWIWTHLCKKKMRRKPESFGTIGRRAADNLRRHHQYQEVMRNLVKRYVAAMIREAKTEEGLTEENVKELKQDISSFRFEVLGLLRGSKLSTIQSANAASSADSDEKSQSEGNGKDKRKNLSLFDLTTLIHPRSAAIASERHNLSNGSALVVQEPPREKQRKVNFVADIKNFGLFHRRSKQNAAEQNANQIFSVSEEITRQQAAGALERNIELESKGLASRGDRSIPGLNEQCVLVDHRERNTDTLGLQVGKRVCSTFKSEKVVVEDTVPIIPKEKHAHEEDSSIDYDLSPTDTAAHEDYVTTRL
Briefly: mouse TRPC4 channel activators, dose response, cell-based, HEK293 TRPC4/mu-opioid, Fluo-4 calcium (AID 434937).

Test [2] has as its target T2, Sentrin-specific protease 6 (Homo sapiens, UniProt Q9GZR1).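 Note: Luminescence-based dose-response confirmatory assay of SENP6 inhibition, following up an ultra-high-throughput screen.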
T2 sequence (Q9GZR1 whole entry): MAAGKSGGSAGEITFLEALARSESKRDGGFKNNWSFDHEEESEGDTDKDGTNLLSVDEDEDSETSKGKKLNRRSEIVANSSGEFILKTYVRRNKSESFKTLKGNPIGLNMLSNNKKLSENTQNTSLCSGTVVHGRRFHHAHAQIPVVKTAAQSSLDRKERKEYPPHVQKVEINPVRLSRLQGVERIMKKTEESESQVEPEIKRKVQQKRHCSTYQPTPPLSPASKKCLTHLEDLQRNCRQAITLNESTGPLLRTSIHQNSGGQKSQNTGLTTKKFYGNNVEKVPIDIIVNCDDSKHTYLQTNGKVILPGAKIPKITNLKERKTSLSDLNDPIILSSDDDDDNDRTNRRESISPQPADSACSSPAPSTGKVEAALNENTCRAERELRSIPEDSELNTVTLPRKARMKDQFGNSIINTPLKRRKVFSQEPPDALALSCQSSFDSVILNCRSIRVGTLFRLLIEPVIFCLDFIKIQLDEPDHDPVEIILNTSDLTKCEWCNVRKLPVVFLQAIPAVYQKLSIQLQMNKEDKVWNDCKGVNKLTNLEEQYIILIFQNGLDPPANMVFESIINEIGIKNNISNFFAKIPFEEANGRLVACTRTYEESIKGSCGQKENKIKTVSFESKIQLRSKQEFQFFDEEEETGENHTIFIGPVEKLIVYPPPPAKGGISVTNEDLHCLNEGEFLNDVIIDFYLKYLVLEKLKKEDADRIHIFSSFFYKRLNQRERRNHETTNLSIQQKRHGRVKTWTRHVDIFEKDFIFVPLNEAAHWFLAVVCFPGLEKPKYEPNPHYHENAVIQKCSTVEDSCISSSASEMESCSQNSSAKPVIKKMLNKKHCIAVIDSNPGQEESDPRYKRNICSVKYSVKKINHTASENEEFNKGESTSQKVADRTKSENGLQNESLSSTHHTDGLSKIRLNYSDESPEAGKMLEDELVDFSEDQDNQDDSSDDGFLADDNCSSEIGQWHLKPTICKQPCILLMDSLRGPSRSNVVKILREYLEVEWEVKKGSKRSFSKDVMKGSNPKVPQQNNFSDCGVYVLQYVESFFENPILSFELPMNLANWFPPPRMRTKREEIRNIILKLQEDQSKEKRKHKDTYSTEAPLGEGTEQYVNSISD

Test [3] deals with T3, Sentrin-specific protease 7 (Homo sapiens, UniProt Q9BQF6).
T3 sequence (Q9BQF6 whole entry): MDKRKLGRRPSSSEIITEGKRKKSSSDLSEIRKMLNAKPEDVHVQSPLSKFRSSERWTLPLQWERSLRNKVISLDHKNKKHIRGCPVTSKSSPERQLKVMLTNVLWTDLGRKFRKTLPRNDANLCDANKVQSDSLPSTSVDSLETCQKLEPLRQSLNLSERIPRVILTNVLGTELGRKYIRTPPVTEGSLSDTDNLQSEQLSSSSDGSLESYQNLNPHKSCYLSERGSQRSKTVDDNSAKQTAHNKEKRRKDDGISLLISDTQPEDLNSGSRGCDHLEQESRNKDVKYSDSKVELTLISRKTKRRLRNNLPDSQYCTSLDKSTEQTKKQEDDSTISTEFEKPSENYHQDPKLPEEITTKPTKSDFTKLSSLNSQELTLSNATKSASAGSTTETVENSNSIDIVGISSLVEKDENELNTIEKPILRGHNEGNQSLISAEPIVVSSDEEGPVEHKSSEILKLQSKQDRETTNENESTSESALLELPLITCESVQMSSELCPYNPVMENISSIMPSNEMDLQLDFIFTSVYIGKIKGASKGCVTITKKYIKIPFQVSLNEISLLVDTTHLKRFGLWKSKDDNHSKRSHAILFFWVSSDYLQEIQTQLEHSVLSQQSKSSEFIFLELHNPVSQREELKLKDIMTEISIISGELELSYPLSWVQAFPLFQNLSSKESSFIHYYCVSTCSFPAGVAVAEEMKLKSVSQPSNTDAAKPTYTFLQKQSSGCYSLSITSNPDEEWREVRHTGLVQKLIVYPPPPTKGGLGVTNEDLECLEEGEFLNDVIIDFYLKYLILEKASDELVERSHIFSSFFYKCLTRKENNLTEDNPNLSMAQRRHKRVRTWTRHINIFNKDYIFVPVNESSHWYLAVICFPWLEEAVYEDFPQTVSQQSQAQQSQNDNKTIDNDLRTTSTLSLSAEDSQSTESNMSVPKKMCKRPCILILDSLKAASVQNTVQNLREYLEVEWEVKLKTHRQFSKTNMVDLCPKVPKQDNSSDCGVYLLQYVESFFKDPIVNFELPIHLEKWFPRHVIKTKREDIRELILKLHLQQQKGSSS

Test [4] concerns the target T4, Sentrin-specific protease 8 (Homo sapiens, UniProt Q96LD8).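 Note: luminescence read-out of SENP8 inhibition, dose-response confirmation following an ultra-high-throughput screen.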
T4 sequence (Q96LD8 whole entry): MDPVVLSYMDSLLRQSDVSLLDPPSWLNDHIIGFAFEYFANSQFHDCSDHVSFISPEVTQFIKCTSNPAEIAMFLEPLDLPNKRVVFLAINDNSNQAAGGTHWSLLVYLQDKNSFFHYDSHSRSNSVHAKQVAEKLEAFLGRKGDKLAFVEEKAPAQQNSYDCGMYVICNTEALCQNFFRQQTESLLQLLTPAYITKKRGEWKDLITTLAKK

Test [5] in a line: Luminescence Cell-Based Dose Retest to Confirm Inhibitors of Cancer Stem Cells. [Related pubchem assays (depositor defined):AID2717, AID2721]. The settings on record: Homo sapiens.
Test [6] addresses T5, Apoptotic protease-activating factor 1 (Homo sapiens, UniProt O14727).
T5 sequence (O14727 whole entry): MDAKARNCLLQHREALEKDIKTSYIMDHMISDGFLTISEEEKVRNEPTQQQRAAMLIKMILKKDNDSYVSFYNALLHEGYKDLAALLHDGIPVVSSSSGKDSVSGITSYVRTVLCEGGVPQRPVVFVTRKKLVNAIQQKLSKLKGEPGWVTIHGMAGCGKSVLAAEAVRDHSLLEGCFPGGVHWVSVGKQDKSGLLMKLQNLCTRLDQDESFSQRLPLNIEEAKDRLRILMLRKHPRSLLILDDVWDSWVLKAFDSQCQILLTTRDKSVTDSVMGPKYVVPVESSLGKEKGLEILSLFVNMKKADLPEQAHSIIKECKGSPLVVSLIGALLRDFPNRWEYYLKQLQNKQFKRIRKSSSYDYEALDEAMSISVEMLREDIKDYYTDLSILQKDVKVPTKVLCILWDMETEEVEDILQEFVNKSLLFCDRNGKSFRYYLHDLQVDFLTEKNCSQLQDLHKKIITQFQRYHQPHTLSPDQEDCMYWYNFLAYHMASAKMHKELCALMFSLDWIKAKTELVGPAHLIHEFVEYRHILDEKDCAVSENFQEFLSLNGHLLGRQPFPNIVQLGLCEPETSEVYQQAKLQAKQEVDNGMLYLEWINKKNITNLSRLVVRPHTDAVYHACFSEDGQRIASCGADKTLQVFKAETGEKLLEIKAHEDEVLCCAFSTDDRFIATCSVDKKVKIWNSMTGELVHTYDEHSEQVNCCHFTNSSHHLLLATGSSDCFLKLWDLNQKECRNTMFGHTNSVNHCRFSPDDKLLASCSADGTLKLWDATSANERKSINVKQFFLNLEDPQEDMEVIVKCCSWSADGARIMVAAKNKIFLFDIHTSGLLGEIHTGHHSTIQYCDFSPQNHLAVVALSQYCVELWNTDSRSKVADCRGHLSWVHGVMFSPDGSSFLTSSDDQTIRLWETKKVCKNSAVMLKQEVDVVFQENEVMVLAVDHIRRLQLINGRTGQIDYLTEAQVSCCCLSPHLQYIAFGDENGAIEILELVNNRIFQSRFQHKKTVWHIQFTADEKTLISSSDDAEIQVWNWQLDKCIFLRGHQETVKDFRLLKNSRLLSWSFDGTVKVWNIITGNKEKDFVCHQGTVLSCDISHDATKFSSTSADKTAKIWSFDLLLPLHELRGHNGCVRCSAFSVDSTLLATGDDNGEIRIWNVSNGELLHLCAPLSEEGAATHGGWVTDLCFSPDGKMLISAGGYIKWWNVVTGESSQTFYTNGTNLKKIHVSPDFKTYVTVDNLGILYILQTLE

Test [7] addresses Ras and Rab interactor 1/Tyrosine-protein kinase ABL1 (Homo sapiens, UniProt P00519+Q13671).

Molecules are shown by their SMILES. Activity calls are given as the source filed them. Cut-off read from the data, not from the text of the source, for most assays here: actives have a measured IC50 and inactives only a lower limit.
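Throughout, for AC50: cells exposed to compound for roughly 70 hours or longer before luminescence read.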

Ras and Rab interactor 1/Tyrosine-protein kinase ABL1, sequence (P00519 whole entry): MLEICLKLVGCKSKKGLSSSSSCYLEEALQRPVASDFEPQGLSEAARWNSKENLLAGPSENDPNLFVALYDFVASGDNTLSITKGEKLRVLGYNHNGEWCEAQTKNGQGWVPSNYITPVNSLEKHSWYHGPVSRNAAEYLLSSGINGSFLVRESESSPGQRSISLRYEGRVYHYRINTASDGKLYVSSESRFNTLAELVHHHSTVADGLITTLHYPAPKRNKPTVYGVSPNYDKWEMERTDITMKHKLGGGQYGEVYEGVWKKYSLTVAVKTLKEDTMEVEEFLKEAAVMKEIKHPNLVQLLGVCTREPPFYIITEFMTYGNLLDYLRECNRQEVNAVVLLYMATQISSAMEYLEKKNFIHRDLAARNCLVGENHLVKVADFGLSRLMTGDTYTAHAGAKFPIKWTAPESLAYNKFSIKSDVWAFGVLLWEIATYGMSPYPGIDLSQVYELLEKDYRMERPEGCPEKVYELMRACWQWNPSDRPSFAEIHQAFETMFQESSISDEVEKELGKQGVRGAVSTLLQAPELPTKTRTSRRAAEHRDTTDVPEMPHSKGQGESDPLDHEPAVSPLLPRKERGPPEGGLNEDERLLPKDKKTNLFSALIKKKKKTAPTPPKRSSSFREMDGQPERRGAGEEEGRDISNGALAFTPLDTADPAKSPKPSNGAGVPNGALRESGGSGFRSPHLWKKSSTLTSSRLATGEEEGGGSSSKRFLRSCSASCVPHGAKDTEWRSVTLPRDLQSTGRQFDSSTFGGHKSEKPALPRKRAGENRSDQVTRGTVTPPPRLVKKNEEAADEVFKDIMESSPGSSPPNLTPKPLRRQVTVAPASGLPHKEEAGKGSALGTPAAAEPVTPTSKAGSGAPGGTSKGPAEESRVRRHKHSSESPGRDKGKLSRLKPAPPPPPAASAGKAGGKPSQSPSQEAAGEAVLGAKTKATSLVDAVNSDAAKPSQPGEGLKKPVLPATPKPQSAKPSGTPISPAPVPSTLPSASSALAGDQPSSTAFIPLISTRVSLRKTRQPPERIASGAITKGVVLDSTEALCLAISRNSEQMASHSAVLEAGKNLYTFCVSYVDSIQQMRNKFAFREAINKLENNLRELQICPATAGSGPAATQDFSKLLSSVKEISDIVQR
Ras and Rab interactor 1/Tyrosine-protein kinase ABL1, sequence (Q13671 whole entry): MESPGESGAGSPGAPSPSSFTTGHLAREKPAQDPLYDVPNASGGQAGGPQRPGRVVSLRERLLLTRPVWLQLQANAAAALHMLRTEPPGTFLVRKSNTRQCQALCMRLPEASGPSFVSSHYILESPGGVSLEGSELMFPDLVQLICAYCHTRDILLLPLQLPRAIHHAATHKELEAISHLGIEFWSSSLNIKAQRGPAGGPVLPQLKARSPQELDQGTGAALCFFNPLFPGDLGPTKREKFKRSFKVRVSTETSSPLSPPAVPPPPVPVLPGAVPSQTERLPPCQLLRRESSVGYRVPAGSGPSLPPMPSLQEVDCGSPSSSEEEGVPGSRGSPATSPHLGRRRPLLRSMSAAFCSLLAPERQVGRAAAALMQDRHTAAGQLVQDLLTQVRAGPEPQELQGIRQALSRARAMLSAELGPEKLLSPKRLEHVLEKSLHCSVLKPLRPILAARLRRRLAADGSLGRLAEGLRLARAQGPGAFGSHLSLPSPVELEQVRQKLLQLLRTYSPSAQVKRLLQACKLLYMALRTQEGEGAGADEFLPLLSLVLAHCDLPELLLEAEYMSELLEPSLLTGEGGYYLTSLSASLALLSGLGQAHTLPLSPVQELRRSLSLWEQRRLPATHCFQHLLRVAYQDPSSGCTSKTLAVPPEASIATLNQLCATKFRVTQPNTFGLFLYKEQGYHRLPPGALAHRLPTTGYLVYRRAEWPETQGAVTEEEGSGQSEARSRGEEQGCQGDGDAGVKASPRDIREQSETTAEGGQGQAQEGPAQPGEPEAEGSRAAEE

One may read the EC50 as the concentration needed to bring the measured effect to its halfway point. For the compound `CC1CCN(CCCNS(=O)(=O)c2cc(Br)cc3c2N(C(=O)C2CC2)CC3)CC1`, the EC50 in test [1] is 0.299 µM (active).

A word on the IC50: it is the concentration needed to halve the response being measured. Usually AC50 stands for the midpoint of the concentration-response curve, whichever way the signal moves. In the case of `COc1cc2ccccc2cc1C(=O)Nc1ccccc1Cl`, the IC50 was 10.2 µM (active) in test [2], 8.41 µM (active) in test [3] and 17.2 µM (active) in test [4]. Further, the AC50 in test [5] was 4.58 µM (active).

For `O=C(CCn1c2c(c3ccccc31)CCCC2)NNC(=O)c1ccc([N+](=O)[O-])cc1`, the IC50 in test [6] was 1.8 µM (active).

As to `Nc1nc(O)cc(NC2CCCC2)n1`, the IC50 in test [7] was 12.4 µM (inactive).

Regarding `CCOC(=O)C1(CCc2ccccc2)CCN(Cc2ccc(OC)cc2)CC1`, in test [1], the EC50 is 0.267 µM (active).

For `CN(C)C(CNC(=O)Cc1cccc(C(F)(F)F)c1)c1ccco1` (configuration not stated), the EC50 in test [1] was 0.335 µM (active).

As for `CC(C)(C)C(=O)[C@@H]1[C@@H]2C(=O)N(C3CCCCC3)C(=O)[C@@H]2[C@H]2c3ccccc3C=CN12`, the IC50 in test [6] is 10.5 µM (active).

In the case of `COc1cccc(NC(=O)Nc2ccc3c(c2)CCC3)c1`, the IC50 was > 100 µM (inactive) in test [2], 4.28 µM (active) in test [3] and > 100 µM (inactive) in test [4].

As to `CN(C(=O)c1ccc(NC(=O)Cc2cccc(NC(=O)C3CCN(C(=O)C4CCCC4)CC3)c2)cc1)C1CC1`, the IC50 in test [7] was 21.2 µM (inactive).

As for `COc1ccc(CCC(=O)Nc2c(-c3ccc(N(C)C)cc3)n[nH]c2O)cc1`, the IC50 in test [7] is > 73.5 µM (inactive).

Turning to `CCCN(CC(=O)Nc1ccccc1C)C(=O)c1sc2ccccc2c1Cl`, the IC50 in test [6] was > 100 µM (inactive).

For `Cc1nc(N/N=C/c2ccc(O)cc2O)cc(N2CCOCC2)n1`, the IC50 in test [7] is > 2.72 µM (active).
